Assay results taken from article PMC12648864 (Biology of Sex Differences, 2025).
Like-named read-outs stand apart in the source and are kept apart here.

What was measured:
[1] = design: method as in PMID 38276513; conditions: following gonadectomy; cited from earlier work
[2] = cited from earlier work
[3] = design: method as in PMID 27169283; conditions: ovariectomized rat, plasma; cited from earlier work
in vivo = conditions: for AUC(0-t) / AUC(0-inf) / Cmax / Tmax / half-life: Sprague-Dawley, rat, plasma, po, 0.59 mg/kg
From the text: In detail, 6 intact 8-week-old male and female Sprague-Dawley (SD) rats, as well as 6 intact 5-week-old male and female SD rats were purchased from Changyang Xishan Breeding Farm (Beijing Changyang Xishan Breeding Farm, China). All rats were provided standard chow and freely-available drinking water. They were acclimatized for 1 week and fasted overnight before drug administration. The rats were divided into intact and GDX groups, with 6 males and 6 females in each group. In GDX group, testes were surgically removed from male rat at 5 weeks of age, while ovaries were excised from female rat. Following surgery, GDX rats were maintained for an additional […] before testing. All animals, both intact and GDX, were tested at 8 weeks of age.
Blood was collected from orbital vein into a centrifuge tube containing sodium heparin at following time points: 5, 10, 15, 30, and 45 min, as well as 1, 1.5, 2, 4, 6, 8, 12, 24, and 48 h. The collected blood was shaken well and centrifuged at 1500 g for 10 min to separate plasma, then stored at −20 ℃ until use. All experimental procedures were reviewed and approved by the Ethical Committee for Use of Laboratory Animals of the Shanxi Medical University (SYDL2025013).
In detail, 180 µL of plasma was pipetted into a tube, followed by the addition of 20 µL of internal standard (100 ng/mL ephedrine) and the mixture was vortexed for 5 s. Next, 1 mL of acetonitrile precipitation protein was added to this mixture, which was vortexed again for 20 s. Finally, the mixture was centrifuged at 13,000 g for 10 min and the supernatant was transferred to a clean tube. This supernatant was evaporated to dryness under a stream of nitrogen at 35 ℃, then reconstituted in 200 µL of a compound solution consisting of methanol and […] ammonium formate (containing 0.1% formic acid) in a 40:60 (v/v) ratio. The reconstituted supernatant was stored at −80 ℃ until use. Subsequently, the supernatant was passed through a 0.22 μm organic filter before analysis using 1260–6470 HPLC-tandem mass spectrometry (MS/MS).
The mobile phase consisted of A: water + […] ammonium formate + 0.1% formic acid, and B: methanol. The gradient elution program was as follows: 0–1 min, 20% B; 1–6.5 min, 20%−80% B; 6.5–7.5 min, 80% B; 7.5–8.5 min, 80%−20% B; 8.5–12 min, 20% B.
MS conditions: Detection was carried out using an Agilent Jet Stream electrospray ionization source in positive ion mode, operating in multiple reaction monitoring mode. The ion source temperature was 300 ℃, and the nebulizer temperature was 305 ℃. The gas flow rate was maintained at 11.0 L/min, with the capillary voltage of 4000 V.

[4] = female, GDX female rats, oral 0.59 mg/kg
[5] = female, intact female rats, oral 0.59 mg/kg
[6] = male, GDX male rats, oral 0.59 mg/kg
[7] = male, intact male rats, oral 0.59 mg/kg

Question: For `NCCCC(=O)O` [γ-aminobutyric acid], which “area under the curve, testosterone-treated male rats versus female rats with similar treatment” value [1] is on record?
Answer: higher

Question: And the “renal clearance, testosterone-treated male rats versus female rats with similar treatment” value [1]?
Answer: significantly lower

Question: Which AUC ([2]; female rats) does the source give for `COc1c([C@H]2[C@H](C(=O)Nc3ccnc(C(N)=O)c3)O[C@@](C)(C(F)(F)F)[C@H]2C)ccc(F)c1F` [VX-548] here?
Answer: 1505.8 ± 47.3 ng·h/mL

Question: And the clearance rate ([2]; female rats)?
Answer: 12.5 ± 0.8 mL/min/kg

Question: What about the AUC ([2]; male rats) of the same molecule?
Answer: 253.8 ± 6.3 ng·h/mL

Question: What about the clearance rate ([2]; male rats) of the same molecule?
Answer: 65.1 ± 1.7 mL/min/kg

Question: For `C[C@H]1O[C@@H](O[C@H]2[C@@H](O)C[C@H](O[C@H]3[C@@H](O)C[C@H](O[C@H]4CC[C@@]5(C)[C@H](CC[C@@H]6[C@@H]5C[C@@H](O)[C@]5(C)[C@@H](C7=CC(=O)OC7)CC[C@]65O)C4)O[C@@H]3C)O[C@@H]2C)C[C@H](O)[C@@H]1O` [digoxin], which “peak digoxin concentration after ovariectomy” value [3] is on record?
Answer: significantly lower

Question: What does the source list for `O=C1C[C@@H]2OCC=C3CN4CC[C@]56c7ccccc7N1[C@H]5[C@H]2[C@H]3C[C@H]46` [strychnine, Strychnine nitrate]?
Answer: delay of time to peak concentration, female later than male rats (in vivo; GDX group, oral 0.59 mg/kg): 0.6 h; peak of plasma concentration in female rats relative to male rats (in vivo; GDX group, oral 0.59 mg/kg): 3.70 times; AUC(0-t) (in vivo; [4]): 489 ± 40.6 ng·h/mL; AUC(0-t) (in vivo; [5]): 409 ± 58.4 ng·h/mL; AUC(0-inf) (in vivo; [4]): 501 ± 43.5 ng·h/mL; AUC(0-inf) (in vivo; [5]): 403 ± 57.7 ng·h/mL; Cmax (in vivo; [4]): 48.1 ± 4.06 ng/mL; Cmax (in vivo; [5]): 116 ± 2.7 ng/mL; Tmax (in vivo; female): 0.63 ± 0.14 h; Tmax (in vivo; [4]): 1.6 ± 0.22 h; half-life (in vivo; female, t1/2, GDX female rats, oral 0.59 mg/kg): 9.06 ± 1.82 h; half-life (in vivo; female, t1/2, intact female rats, oral 0.59 mg/kg): 5.7 ± 2.6 h; delay of time to peak concentration, female later than male rats (in vivo; intact group, oral 0.59 mg/kg): 0.05 h; peak of plasma concentration in female rats relative to male rats (in vivo; intact group, oral 0.59 mg/kg): 3.49 times; AUC(0-t) (in vivo; [6]): 152 ± 10.4 ng·h/mL; AUC(0-t) (in vivo; [7]): 96.8 ± 24.9 ng·h/mL; AUC(0-inf) (in vivo; [6]): 153 ± 10.3 ng·h/mL; AUC(0-inf) (in vivo; [7]): 97 ± 24.7 ng·h/mL; Cmax (in vivo; [6]): 13 ± 0.6 ng/mL; Cmax (in vivo; [7]): 33.4 ± 2.01 ng/mL; Tmax (in vivo; male): 0.58 ± 0.13 h; Tmax (in vivo; [6]): 1 h; half-life (in vivo; male, t1/2, GDX male rats, oral 0.59 mg/kg): 7.68 ± 0.94 h; half-life (in vivo; male, t1/2, intact male rats, oral 0.59 mg/kg): 3.84 ± 1.48 h
